The values that follow come from article PMC4849550 (ACS chemical biology, 2016).

Structures are written as SMILES.

The assay has as its target Csd4 (Helicobacter pylori, UniProt B5ZAD9). Briefly: crystal structure at […] Å. The assay is classed as biochemical.

What is called Ki is the equilibrium dissociation constant of an inhibitor or competing ligand from its target. Low values mean higher affinity, high ones lower affinity. Compound `CC(=O)N[C@H](CCP(=O)(O)CC(CCC[C@@H](N)C(=O)O)C(=O)O)C(=O)O` (mixture of isomers) [compound 1, inhibitor 1] registered a Ki of 1.5 ± 0.3 µM.
